Measured values reported in publication PMC3864132 (Cancer immunology, immunotherapy : CII, 2013).

How the values were obtained:
[1] = tested on: metastatic melanoma patients; conditions: in combination with IL-2, metastatic melanoma patients; cited from earlier work
[2] = tested on: HHD mice; conditions: mean from 3 mice ± SD
[3] = tested on: HHD×ERG^pb/pb mice; conditions: mouse, in vivo; SD

Row | Substance | Median overall survival [1] | ERG295 responsive cells per million splenocytes ([2]; HHD mice around 16 weeks old, 1 immunization) [per million splenocytes] | ERG295 responsive T-cells ([2]; HHD mice, 3 immunizations at 7-day intervals) | ERG295 responsive T-cells [3] | ERG295 responsive cells per million splenocytes [3] [per million splenocytes]
1 | gp100:209:217(210M): HLA-A*0201 restricted melanoma epitope (IMDQVPFSV; UniProt P40967 209-217, looked up, variant T210M) | significantly improved median overall survival |  |  |  | 
2 | QLWQFLLEL [ERG295] |  | 275 ± 45 | 405 ± 120 | 305 ± 49 | 177 ± 51
